Consider 5 compounds from patent US20040175382A1, “Methods of using and compositions comprising selective cytokine inhibitory drugs for the treatment and management of disorders of the central nervous system” (priority 2003, published 2004).

Data set [1] relates to TNF-α production following LPS-stimulation of human PBMC and human whole blood. Description: in vitro pharmacological activity profile, comparison with thalidomide (cytokine production). It counts as cell-based. How it is done: The pharmacological properties of 3-(3,4-dimethoxy-phenyl)-3-(1-oxo-1,3-dihydro-isoindol-2-yl)-propionamide, including activity comparisons with thalidomide, are characterized in in vitro studies. Studies examine the effects of 3-(3,4-dimethoxy-phenyl)-3-(1-oxo-1,3-dihydro-isoindol-2-yl)-propionamide on the production of various cytokines. In addition, a safety pharmacology study of 3-(3,4-dimethoxy-phenyl)-3-(1-oxo-1,3-dihydro-isoindol-2-yl)-propionamide is conducted in dogs and the effects of the compound on ECG parameters are examined further as part of three repeat-dose toxicity studies in primates.
Inhibition of TNF-α production following LPS-stimulation of human PBMC and human whole blood by 3-(3,4-dimethoxy-phenyl)-3-(1-oxo-1,3-dihydro-isoindol-2-yl)-propionamide is investigated in vitro (Muller et al., Bioorg. Med. Chem. Lett. 9:1625-1630, 1999). The IC50's of 3-(3,4-dimethoxy-phenyl)-3-(1-oxo-1,3-dihydro-isoindol-2-yl)-propionamide for inhibiting production of TNF-α following LPS-stimulation of PBMC and human whole blood is measured.
The pharmacological effects of 3-(3,4-dimethoxy-phenyl)-3-(1-oxo-1,3-dihydro-isoindol-2-yl)-propionamide derive from its action as an inhibitor of cellular response to receptor-initiated trophic signals (e.g., IGF-1, VEGF, cyclooxygenase-2), and other activities.

A short description of data set [2]: cardiovascular and respiratory function in anesthetized dogs. It counts as in vivo. To be noted: anesthetized Beagle dogs; 400, 800 and 1,200 mg/kg/day ascending doses, infusion through the jugular vein. How it is done:
The effects of 3-(3,4-dimethoxy-phenyl)-3-(1-oxo-1,3-dihydro-isoindol-2-yl)-propionamide on cardiovascular and respiratory function are investigated in anesthetized dogs. Two groups of Beagle dogs (2/sex/group) are used. One group receives three doses of vehicle only and the other receives three ascending doses of 3-(3,4-dimethoxy-phenyl)-3-(1-oxo-1,3-dihydro-isoindol-2-yl)-propionamide (400, 800, and 1,200 mg/kg/day). In all cases, doses of 3-(3,4-dimethoxy-phenyl)-3-(1-oxo-1,3-dihydro-isoindol-2-yl)-propionamide or vehicle are successively administered via infusion through the jugular vein separated by intervals of at least 30 minutes.

A further data set has as its system CBP+/− mutant mice. To be noted: cited from earlier work.
The next data set has as its system patients with PD. To be noted: cited from earlier work.
For data set [3], the system named is rat mesencephalonic neurons. The conditions noted are these: in the presence of the adenylate cyclase activator forskolin; cited from earlier work.

The structures appear in SMILES notation.

For `COc1ccc(C(CC(N)=O)N2Cc3ccccc3C2=O)cc1OC` (stereo not drawn) [3-(3,4-dimethoxy-phenyl)-3-(1-oxo-1,3-dihydro-isoindol-2-yl)-propionamide], in data set [1] (in vitro), the “effect on generation of inflammatory cytokines” value is listed as “suppresses the generation of inflammatory cytokines”. In data set [1] (in vitro studies, pharmacological activity profile similar to thalidomide), the “potency relative to thalidomide (times more potent)” value was 5 to 50 times. Also, the “cardiovascular and respiratory changes compared to the vehicle control group” value in data set [2] is “minimal at all doses”.
In the case of `COc1ccc([C@H]2CNC(=O)[C@H](Cc3cccc(C)c3)C2)cc1OC1CCCC1` [HT0712], the long-term memory defects entry with CBP+/− mutant mice is reported as “abolished the long-term memory defects”.
For `COc1ccc(C2CNC(=O)C2)cc1OC1CCCC1` (stereo not drawn) [Rolipram], the dose-limiting side effect entry in the data set on patients with PD (Phase II trials of PD) is given as “nausea”. For the same compound, in the data set with patients with PD (double-blind trial versus placebo, patients with PD already under treatment, 3 mg per day), the “deterioration of the therapeutic action of dopamine against Lisuride” value was “no significant deterioration”. Moreover, the long-term memory defects result in the data set with CBP+/− mutant mice was “abolished the long-term memory defects”.
Turning to `COCCOc1cc(OCCOC)cc(-c2nc(C)cc3cc(OC)c(OC)cc23)c1` [SDZ-MNS 949], the uptake of dopamine result in data set [3] is on record as “stimulate uptake of dopamine”.
For the compound `CCCCOc1cc(CC2CNC(=O)N2)ccc1OC` (stereo not drawn) [Ro-20 1724], in data set [3], the uptake of dopamine result is “stimulate uptake of dopamine”.
